Drawing on patent US7534805B2, “Imidazole derivatives, their preparation and their use as medicaments” (Societe de Conseils de Recherches Et d'Applications …, priority 2003, dated 2009), this text covers melting point for 49 compounds.

The structures appear in SMILES notation. A value given as a limit tells only on which side of the number the result lay.

`Brc1ccc(Oc2ccc(-c3c[nH]c(COc4ccccc4)n3)cc2)cc1.O=C(O)C(F)(F)F` yielded a melting point of 174 to 176 °C. Then `Cl.c1ccc(OCc2nc(-c3ccc(OCCN4CCCCC4)cc3)c[nH]2)cc1`, with 227 to 229 °C. The result for `CN(C)CCOc1ccc(-c2c[nH]c(COc3ccccc3)n2)cc1.Cl` reads 206 to 208 °C; that for `O=C(O)C(F)(F)F.O=C(c1ccccc1)c1ccc(-c2c[nH]c(COc3ccccc3)n2)cc1`, less than 50 °C. The result for `O=C(Nc1ccc(F)cc1)c1ccc(-c2c[nH]c(COc3ccccc3)n2)cc1.O=C(O)C(F)(F)F` reads 198 to 200 °C; that for `Cl.Nc1cccc(Oc2ccc(-c3c[nH]c(COc4ccccc4)n3)cc2)c1`, greater than 300 °C; that for `Nc1ccc(Oc2ccc(-c3c[nH]c(COc4ccccc4)n3)cc2)cc1[N+](=O)[O-].O=C(O)C(F)(F)F`, 178 to 180 °C.

The compound `Cl.Nc1ccccc1Oc1ccc(-c2c[nH]c(COc3ccccc3)n2)cc1` had a melting point of 88 to 89 °C.

The compound `Cl.NCc1ccc(Oc2ccc(-c3c[nH]c(COc4ccccc4)n3)cc2)cc1` had a melting point greater than 300 °C. The result for `Cl.Clc1ccccc1Oc1ccc(-c2c[nH]c(COc3ccccc3)n2)cc1` reads 158 to 160 °C; that for `Cl.NCC(=O)Nc1ccc(Oc2ccc(-c3c[nH]c(COc4ccccc4)n3)cc2)cc1`, greater than 250 °C. `O=C(O)C(F)(F)F.c1ccc(OCc2nc(-c3ccc(Oc4ccccc4)cc3)c[nH]2)cc1`: the melting point was 112 to 114 °C. The result for `c1ccc(SCc2nc(-c3ccc(-c4ccccc4)cc3)c[nH]2)cc1` [Example 2, 4-(1,1′-biphenyl-4-yl)-2-[(phenylthio)methyl]-1H-imidazole] reads 150 to 152 °C; that for `c1ccc(OCc2nc(-c3ccc(-c4ccccc4)cc3)c[nH]2)cc1` [Example 3, 4-(1,1′-biphenyl-4-yl)-2-(phenoxymethyl)-1H-imidazole], 185 to 187 °C; that for `Fc1ccc(Oc2ccc(-c3c[nH]c(CSc4ccccc4)n3)cc2)cc1` [Example 4, 4-[4-(4-fluorophenoxy)phenyl]-2-[(phenylthio)methyl]-1H-imidazole], 108 to 110 °C. The result for `Fc1ccc(OCc2nc(-c3ccc(Oc4ccc(F)cc4)cc3)c[nH]2)cc1` [Example 5, 2-[(4-fluorophenoxy)methyl]-4-[4-(4-fluorophenoxy)phenyl]-1H-imidazole] reads 193 to 195 °C. Then `c1ccc(OCc2nc(-c3ccc(Sc4ccccc4)cc3)c[nH]2)cc1` [Example 6, 2-(phenoxymethyl)-4-[4-(phenylthio)phenyl]-1H-imidazole], with 144 to 146 °C; and `O=S(=O)(c1ccccc1)c1ccc(-c2c[nH]c(COc3ccccc3)n2)cc1` [Example 7, 2-(phenoxymethyl)-4-[4-(phenylsulphonyl)phenyl]-1H-imidazole], with 192 to 194 °C. Regarding `Fc1ccccc1COc1ccc(-c2c[nH]c(COc3ccccc3)n2)cc1` [Example 8, 4-{4-[(2-fluorobenzyl)oxy]phenyl}-2-(phenoxymethyl)-1H-imidazole], the melting point is 182 to 183 °C.

For `c1ccc(OCc2nc(-c3ccc(-n4ccnc4)cc3)c[nH]2)cc1` [Example 11, 4-[4-(1H-imidazol-1-yl)phenyl]-2-(phenoxymethyl)-1H-imidazole], the melting point is 194 to 196 °C. Then `COc1ccc(Oc2ccc(-c3c[nH]c(COc4ccccc4)n3)cc2)cc1` [Example 12, 4-[4-(4-methoxyphenoxy)phenyl]-2-(phenoxymethyl)-1H-imidazole], with 132 to 134 °C; and `CCCCCCc1ccc(-c2c[nH]c(COc3ccccc3)n2)cc1` [Example 13, 4-(4-hexylphenyl)-2-(phenoxymethyl)-1H-imidazole], with 151 to 153 °C. The result for `CCCCOc1ccc(-c2c[nH]c(COc3ccccc3)n2)cc1` [Example 14, 4-(4-butoxyphenyl)-2-(phenoxymethyl)-1H-imidazole] reads 179 to 181 °C; that for `O=[N+]([O-])c1ccc(Oc2ccc(-c3c[nH]c(COc4ccccc4)n3)cc2)cc1` [Example 15, 4-[4-(4-nitrophenoxy)phenyl]-2-(phenoxymethyl)-1H-imidazole], 187 to 189 °C; that for `c1ccc(OCc2nc(-c3ccc(OCCN4CCOCC4)cc3)c[nH]2)cc1` [Example 16, 4-(2-{4-[2-(phenoxymethyl)-1H-imidazol-4-yl]phenoxy}ethyl) morpholine], 144 to 146 °C.

As to `COCCOc1ccc(-c2c[nH]c(COc3ccccc3)n2)cc1` [Example 19, 4-[4-(2-methoxyethoxy)phenyl]-2-(phenoxymethyl)-1H-imidazole], the melting point fell in the range of 159 to 161 °C.

Take `FC(F)(F)CCCOc1ccc(-c2c[nH]c(COc3ccccc3)n2)cc1` [Example 20, 2-(phenoxymethyl)-4-[4-(4,4,4-trifluorobutoxy)phenyl]-1H-imidazole]: the melting point is 194 to 196 °C. Then `Cc1[nH]c(COc2ccccc2)nc1-c1ccc(Oc2ccc(F)cc2)cc1` [Example 21, 4-[4-(4-fluorophenoxy)phenyl]-5-methyl-2-(phenoxymethyl)-1H-imidazole], with less than 40 °C; and `O=C(Nc1ccc(-c2c[nH]c(COc3ccccc3)n2)cc1)c1ccc(F)cc1` [Example 22, 4-fluoro-N-{4-[2-(phenoxymethyl)-1H-imidazol-4-yl]phenyl}benzamide], with 224 to 225 °C. `N#Cc1ccc(Oc2ccc(-c3c[nH]c(COc4ccccc4)n3)cc2)cc1` [Example 23, 4-{4-[2-(phenoxymethyl)-1H-imidazol-4-yl]phenoxy}benzonitrile] had a melting point of 179 to 181 °C.

`CCOC(=O)c1ccc(-c2c[nH]c(COc3ccccc3)n2)cc1` [Example 24, ethyl 4-[2-(phenoxymethyl)-1H-imidazol-4-yl]benzoate] yielded a melting point of 133 to 135 °C. Then `CCOC(=O)c1ccc(Oc2ccc(-c3c[nH]c(COc4ccccc4)n3)cc2)cc1` [Example 25, ethyl 4-{4-[2-(phenoxymethyl)-1H-imidazol-4-yl]phenoxy}benzoate], with 100 to 102 °C. Then `CSc1ccc(Oc2ccc(-c3c[nH]c(COc4ccccc4)n3)cc2)cc1` [Example 26, 4-{4-[4-(methylthio)phenoxy]phenyl}-2-(phenoxymethyl)-1H-imidazole], with 122 to 124 °C; and `CS(=O)(=O)c1ccc(Oc2ccc(-c3c[nH]c(COc4ccccc4)n3)cc2)cc1` [Example 27, 4-{4-[4-(methylsulphonyl)phenoxy]phenyl}-2-(phenoxymethyl)-1H-imidazole], with 143 to 145 °C; and `O=[N+]([O-])c1cccc(Oc2ccc(-c3c[nH]c(COc4ccccc4)n3)cc2)c1` [Example 31, 4-[4-(3-nitrophenoxy)phenyl]-2-(phenoxymethyl)-1H-imidazole], with 140 to 142 °C. Then `c1ccc(COc2ccc(Oc3ccc(-c4c[nH]c(COc5ccccc5)n4)cc3)cc2)cc1` [Example 33, 4-{4-[4-(benzyloxy)phenoxy]phenyl}-2-(phenoxymethyl)-1H-imidazole], with 134 to 136 °C; and `Oc1ccc(Oc2ccc(-c3c[nH]c(COc4ccccc4)n3)cc2)cc1` [Example 34, 4-{4-[2-(phenoxymethyl)-1H-imidazol-4-yl]phenoxy}phenol], with 211 to 213 °C; and `Fc1cccc(Oc2ccc(-c3c[nH]c(COc4ccccc4)n3)cc2)c1` [Example 35, 4-[4-(3-fluorophenoxy)phenyl]-2-(phenoxymethyl)-1H-imidazole], with 177 to 179 °C. Compound `N#Cc1cccc(Oc2ccc(-c3c[nH]c(COc4ccccc4)n3)cc2)c1` [Example 39, 3-{4-[2-(phenoxymethyl)-1H-imidazol-4-yl]phenoxy}benzonitrile] showed a melting point of 161 to 163 °C. The compound `O=[N+]([O-])c1ccccc1Oc1ccc(-c2c[nH]c(COc3ccccc3)n2)cc1` [Example 40, 4-[4-(2-nitrophenoxy)phenyl]-2-(phenoxymethyl)-1H-imidazole] displayed a melting point of 128 to 129 °C. Then `Brc1cccc(Oc2ccc(-c3c[nH]c(COc4ccccc4)n3)cc2)c1` [Example 44, 4-[4-(3-bromophenoxy)phenyl]-2-(phenoxymethyl)-1H-imidazole], with 133 to 135 °C; and `Clc1cccc(Oc2ccc(-c3c[nH]c(COc4ccccc4)n3)cc2)c1` [Example 46, 4-[4-(3-chlorophenoxy)phenyl]-2-(phenoxymethyl)-1H-imidazole], with 146 to 148 °C. The result for `Fc1cc(F)cc(Oc2ccc(-c3c[nH]c(COc4ccccc4)n3)cc2)c1` [Example 47, 4-[4-(3,5-difluorophenoxy)phenyl]-2-(phenoxymethyl)-1H-imidazole] reads 160 to 161 °C; that for `c1ccc(Cc2ccc(-c3c[nH]c(COc4ccccc4)n3)cc2)cc1` [Example 48, 4-(4-benzylphenyl)-2-(phenoxymethyl)-1H-imidazole], 147 to 148 °C; that for `Cc1cccc(Oc2ccc(-c3c[nH]c(COc4ccccc4)n3)cc2)c1` [Example 49, 4-[4-(3-methylphenoxy)phenyl]-2-(phenoxymethyl)-1H-imidazole], 160 to 162 °C. Then `Fc1ccccc1Oc1ccc(-c2c[nH]c(COc3ccccc3)n2)cc1` [Example 51, 4-[4-(2-fluorophenoxy)phenyl]-2-(phenoxymethyl)-1H-imidazole], with 154 to 156 °C; and `Fc1ccc(Oc2ccc(-c3c[nH]c(COc4ccccc4)n3)cc2)cc1F` [Example 52, 4-[4-(3,4-difluorophenoxy)phenyl]-2-(phenoxymethyl)-1H-imidazole], with 188 to 190 °C.

In turn, `Fc1ccc(F)c(Oc2ccc(-c3c[nH]c(COc4ccccc4)n3)cc2)c1` [Example 54, 4-[4-(2,5-difluorophenoxy)phenyl]-2-(phenoxymethyl)-1H-imidazole] registered a melting point of 128 to 130 °C. Then `Fc1ccc(Oc2ccc(-c3c[nH]c(COc4ccccc4)n3)cc2)c(F)c1` [Example 55, 4-[4-(2,4-difluorophenoxy)phenyl]-2-(phenoxymethyl)-1H-imidazole], with 131 to 133 °C.
